The experiment has as its system WSU-DLCL2 lymphoma cells.

The values below come from patent publication US20170306040A1, “COMBINATION THERAPY OF AN AFUCOSYLATED CD20 ANTIBODY WITH A CD22 ANTIBODY-DRUG CONJUGATE” (Hoffmann-La Roche Inc., priority 2013, published 2017).

Method: The tumor cell line was routinely cultured in DMEM containing 10% FCS (Gibco) at 37° C. in a water-saturated atmosphere at 5% CO2. Passage 15 was used for transplantation in human CD16 transgenic Scid mice. […] Expression of CD20 and CD22 was confirmed on WSU-DLCL2 lymphoma cells by FACS. […] Mean fluorescence was measured using the plate protocol in the FACS CantoII (Software FACS Diva).
60 SCID FcgR3 transgenic female mice (SCID CD16 tg mice), age 7-8 weeks at start of experiment (purchased from Charles River), were maintained under specific-pathogen-free condition with daily cycles of 12 h light/12 h darkness according to committed guidelines (GV-Solas; Felasa; TierschG). […] After arrival animals were maintained for one week to get accustomed to new environment and for observation. Continuous health monitoring was carried out on regular basis.
Animals were randomized for CD16 Expression on murine NK cells with an average of 70%. Treatment started 12 days after cell transplantation. […] The CD22-ADC was given once on study day 12 at the dose of 4 mg/kg. The antibody dilutions were prepared freshly from stock before use. The study was terminated on day 273.
Animals were controlled daily for clinical symptoms and detection of adverse effects. Termination criteria for animals were visible sickness: scruffy fur, arched back, heavy breathing, impaired locomotion, HLP (hind leg paralysis). Mice were sacrificed according to the termination criteria.
Survival data were statistically analyzed by pairwise Wilcoxon and pairwise log-rank test.
The diffuse large B-cell lymphoma cell line WSU-DLCL2 was intravenously inoculated (5×10^6 cells) into the tail vein of the human CD16 transgenic Scid mice. Mice were randomized for equal CD16 expression of NK cells and treatment started at day 12 after cell transplantation. […] Animals in the control group received PBS. All animals were controlled daily for clinical symptoms and detection of adverse effects and sacrificed according to the set termination criteria. Study termination was on study day 273. Survival data were represented with the survival curve (FIG. 1) and were statistically analyzed by Pairwise Wilcoxon and Pairwise Log-Rank test (FIG. 2).

Take “GA101: afucosylated glycoengineered humanized B-Ly1 type II anti-CD20 IgG1 antibody”: under “Pairwise Wilcoxon test”, the “Survival difference between GA101 and rituximab single agents” value was “no significant difference”; the “Survival difference from the vehicle group” value was “significantly different from the vehicle group except of GA101”. The “Median Survival” value (WSU-DLCL2 i.v. in SCID CD16 tg mice, GA101/rituximab 30 mg/kg i.v. days 12, 19, 26, CD22-ADC 4 mg/kg i.v. once day 12, study end day 273) is 86.5 days. Also, the “Animals tumor free at the end of the study” value (day 273, 10 animals per group) came out at 1 animals. Also, the “Overall Survival at end of experiment (day 273)” value (surviving animals/10 per group, same dosing as the median survival study) was 1/10.
